The numbers were not newly measured in patent US20100151037A1, “METHOD FOR THE PREPARATION OF NANOPARTICLES CONTAINING A POORLY WATER-SOLUBLE […] ACTIVE COMPOUND” (priority 2008, published 2010), which cites them from elsewhere.

For the series the following is noted: dry powder form.

With `COC1=C(OC)C(=O)C(C/C=C(\C)CC/C=C(\C)CC/C=C(\C)CC/C=C(\C)CC/C=C(\C)CC/C=C(\C)CC/C=C(\C)CC/C=C(\C)CC/C=C(\C)CCC=C(C)C)=C(C)C1=O` [Coenzyme Q10], the bioavailability result is “as low as three percent”.
